Source: paper PMC11239005, “Preclinical studies of RA475, a guanidine-substituted spirocyclic candidate RPN13/ADRM1 inhibitor for treatment of ovarian cancer” (PLOS ONE, 2024)
Values after ≈ are worked out from the molar mass of the structure shown. Where two headings read alike, the source gives them in different places.

Tests used:
[1] = Kinetic aqueous solubility in PBS pH 7.4; format: physicochemical; settings: 25 °C, pH 7.4, aqueous buffer, kinetic from dmso stock
Description: Kinetic solubility assays were performed according to Enamine’s aqueous solubility SOP. Briefly, using a 20 mM stock solution of the compound in 100% DMSO dilutions were prepared to a theoretical concentration of 400 μM in duplicates in phosphate-buffered saline pH 7.4 (138 mM NaCl, 2.7 mM KCl, 10 mM K-phosphate) with 2% final DMSO. The experimental compound dilutions in PBS were further allowed to equilibrate at 25°C on a thermostatic shaker for two hours and then filtered through HTS filter plates using a vacuum manifold. The filtrates of test compounds were diluted 2-fold with acetonitrile with 2% DMSO before measuring. In parallel, using a 20 mM stock solution of the compound in 100% DMSO dilutions were prepared to theoretical concentrations of 0 μM (blank), 10 μM, 25 μM, 50 μM, 100 μM, and 200 μM in 50% acetonitrile/PBS with 2% final DMSO to generate calibration curves. Ondansetron was used as a reference compound to control proper assay performance. 200 μL of each sample was transferred to a 96-well plate and measured in the 230–550 nm range with a 5 nm step. The concentrations of compounds in PBS filtrate are calculated using a dedicated Microsoft Excel calculation script. Proper absorbance wavelengths for calculations are selected for each compound manually based on absorbance maximums (absolute absorbance unit values for the minimum and maximum concentration points within the 0–3 OD range). Each final dataset is visually evaluated by the operator, and goodness of fit (R^2) is calculated for each calibration curve.

HCC1395 = assay: MTT cytotoxicity assay, HCC1395; format: cell-based; settings: Homo sapiens, HCC1395, 72 h
Description: (§1) All cell lines were obtained from the American Type Culture Collection (ATCC) and cultured in the specified medium supplemented with 10% fetal bovine serum, 100 IU/mL penicillin, and 100 μg/mL streptomycin at 37°C in a humidified 5% CO2/95% air incubator. Synthesis of new compounds is described in S1 File, and >95% purity of RA475, Up284 and its analogs were confirmed by NMR and MS. To assess drug cytotoxicity, cells were seeded at 2,500 cells/well (10,000 cells/well for MM lines) in 100 μL medium in 96-well plate as triplicates and after 24 h treated with compounds for a further 72 h. To assess cytotoxicity, the cells were incubated for 2 h at 37°C according to the manufacturer’s protocol with the Thiazolyl Blue Tetrazolium Bromide (20 μL/well of 5 mg/mL stock solution in water) (Sigma, M5655) and A570 measured using a Benchmark Plus microplate spectrophotometer (BIO-RAD). IC50 was estimated using Graphpad Prism 7 software.

HCC1806 = assay: MTT cytotoxicity assay, HCC1806; format: cell-based; settings: Homo sapiens, HCC1806, 72 h
Description: as §1

BT549 = assay: MTT cytotoxicity assay, BT549; format: cell-based; settings: Homo sapiens, BT-549, BT549, 72 h
Description: as §1

PEA2 = assay: MTT cytotoxicity assay, PEA2; format: cell-based; settings: Homo sapiens
Description: as §1
Modifications of Up284 were sought to improve its drug-like properties without significant compromise of its activity in vivo, and several new compounds were synthesized (S1 File). Based on our prior studies of its pharmacophore, the central ring nitrogen was the most logical for addition of charged moieties, including RA475 and RA484. We also examined a change to either 3,4 spiro rings (RA477, RA479), or addition of 3-Fluoro substitutions (RA482) (S1 File). Our focus is developing iRPN13 to treat ovarian cancer resistant to standard of care drug regimens.

HCT116 = assay: MTT cytotoxicity assay, HCT116; format: cell-based; settings: Homo sapiens, HCT-116, HCT116, 72 h
Description: as §1

| SMILES | solubility at 2 h [1] | IC50 (HCC1395; MTT, read-out: IC50) | IC50 (HCC1806) | IC50 (BT549) | IC50 (PEA2; PEA2, 72 h, MTT, read-out: IC50) | IC50 (HCT116) | solubility at 2 h ([1]; kinetic, 2% DMSO, 25°C, 2 h, read-out: PBS solubility, pH 7.4, Incubation 1) | solubility at 2 h ([1]; kinetic, 2% DMSO, 25°C, 2 h, read-out: PBS solubility, pH 7.4, Incubation 2) | solubility at 2 h ([1]; kinetic, 2% DMSO, 25°C, 2 h, read-out: PBS solubility, pH 7.4, Mean) | IC50 (HCC1395) | IC50 (PEA2; 72 h) |
| --- | --- | --- | --- | --- | --- | --- | --- | --- | --- | --- | --- |
| N#Cc1ccc(/C=C2/C(=O)/C(=C/c3ccc(C#N)cc3)C23CCNCC3)cc1 [Up284, reference compound] | 37 µM (≈ 13.5 µg/mL) | 120 nM | 140 nM | 70 nM | 144 nM | 110 nM |  |  |  |  |  |
| Cl.Cl.N#Cc1ccc(/C=C2/C(=O)/C(=C/c3ccc(C#N)cc3)C23CCN(C(=N)N)CC3)cc1 [RA475, 1,3-bis((E)-4-cyanobenzylidene)-2-oxo-7-azaspiro[3.5]nonane-7-carboximidamide dihydrochloride] |  |  | 113 nM | 229 nM |  | 430 nM | 136 µM | 138 µM | 137 µM | 464 nM | 356 nM |
